The text below walks through data of patent publication EP0305646B1, “3-Hydroxypyrid-4-ones and pharmaceutical compositions” (BRITISH TECHNOLOGY GROUP LIMITED, priority 1983, dated 1984).

Like-named read-outs stand apart in the source and are kept apart here.

Data set [1] deals with Mice. Briefly: In vivo iron binding capacity: excretion of 59Fe in iron dextran loaded mice. Conditions: 10 mg per mouse, control = 100%. On the procedure: Mice were injected intraperitoneally with iron dextran (2 mg) at weekly intervals over a four week period. Two weeks after the final injection, the mice were injected via the tail vein with ^59Fe lactoferrin (human lactoferrin, 1 mg per injection 2 µCi). The mice were then caged individually. After a ten day period, 1-acetyl-3-hydroxypyrid-2-one was administered to groups of 8 mice at 10 mg per mouse either intraperitoneally or intragastrically (in each case 3 of the mice received only one dose whilst 5 received 2 doses at a 24 hour interval). The excretion of iron was recorded at either 12 or 24 hourly intervals over a three day period before and a two day period after administration of the compound. For comparative purposes, the procedure was repeated with a blank control and with desferrioxamine, also at 10 mg per mouse (the intraperitoneally treated mice receiving one dose of desferrioxamine and the intragastrically treated mice two doses at a 24 hour interval).
The results are shown in Table 4, being given on the basis of the control representing 100% excretion, and illustrate the particular advantage of the pyridones as compared with desferrioxamine for oral administration the levels of iron excreted on intragastric administration being higher for all the pyridones tested than for desferroxamine. […] However, this is not the case here, the large SD values being a consequence of the large range among the positive responses.

Data set [2] addresses T1, Horse spleen ferritin (Equus caballus, UniProt P02791+Q8MIP0).
T1 construct: Horse spleen ferritin (Sigma) was used without further purification; purchased Sigma; host or cells: horse spleen (tissue-derived)
Particulars: cited from earlier work.

Data set [3] in a line: Affinity for iron (III) expressed as log Ksol. It counts as physicochemical. Particulars: > 6.0 needed to remove iron from transferrin. From the text:
In order to solubilise iron (III) hydroxide, log Ksol must be greater than 0 and in order to remove iron from transferrin, log Ksol should be in excess of 6.0. The log Ksol values for 1,2-dimethyl-3-hydroxypyrid-4-one, by way of example, is 9.5, thus comparing favourably with those of the bidentate hydroxamates at about 4.0, of catechols at about 8.0, of desferrioxamine at 6.0, and of diethylenetriamine penta-acetic acid (DTPA) at 2.0. Moreover, the ability of the compounds to remove iron efficiently has been confirmed both by in vitro test and also by in vivo tests in mice. It is particularly significant that these latter tests are successful whether the compound is given intraperitoneally or orally by stomach tube, the compounds generally either being stable under acidic conditions or being converted thereby to acid stable active compounds.

Data set [4] has as its target T2, Human transferrin (Homo sapiens, UniProt P02787).
T2 construct: purchased Sigma
Briefly: Mobilisation of iron from 59Fe-loaded transferrin. It counts as biochemical. Particulars: 59Fe transferrin 10^-5 M, compound 4 x 10^-3 M in tris HCl (0.1 M, pH 7.4); for Percentage of iron removed 4 hours: incubation 4 hours; for Percentage of iron removed 18 hours: incubation 18 hours. On the procedure: Human transferrin (Sigma) was loaded with iron (III) by the method of Bates and Schlaback. J. Biol. Chem. (1973) 248, 3228. ^59Iron (III) transferrin (10^-5 M) was incubated with a 4 x 10^-3 M solution in tris HCl (0.1 M, pH 7.4) of one of various pyridones as indicated in Table 3 for periods of 4 hours and 18 hours. The solution was then dialysed against phosphate buffered saline for 24 hours. The ^59Fe remaining in the dialysis tube was then recorded. For comparative purposes, this procedure was repeated with desferrioxamine using incubation for both 4 hours and 18 hours and with EDTA using incubation for 4 hours only.
The results are shown in Table 3 in terms of the percentage of transferrin bound iron removed by the compound under test. It will be seen that the pyrid-4-one compounds are very effective at iron removal, as compared with desferrioxamine or EDTA, after only 4 hours.

A short description of data set [5]: Partition coefficient Kpart between n-octanol and aqueous tris hydrochloride, by spectrophotometry. Particulars: n-octanol / tris hcl, pH 7.4.
Method: The partition coefficient Kpart being the ratio (concentration of compound in n-octanol)/)concentration of compound in aqueous phase) on partition between n-octanol and aqueous tris hydrochloride (20 mM, pH 7.4), is measured by spectrophotometry at 20°C for various of the compounds of the previous Examples and for their 3:1 iron(III) complexes at (10^-4M by spectrophotometry. The solutions of the complexes are either produced by dissolving the pre-formed complex in the aqueous tris hydrochloride or are prepared in situ in the buffer by the admixture of a 3:1 molar ratio of the pyridone and ferric chloride, the pH thereafter being readjusted to 7.4 if necessary (the same product will be obtained in the buffer solution irrespective of whether the pyridone used is in a salt form or not). Acid washed glassware is used throughout and, following mixing of 5 ml of the 10^-4M aqueous solution with 5 ml n-octanol for 1 minute, the aqueous n-octanol mixture is centrifuged at 1,000 g for 30 seconds. The two resulting phases are separated for a concentration determination by spectrophotometry on each. For the free hydroxypyridones, the range 220-240 nm is used for concentration determinations whilst for the iron complexes, the range 340-360 nm is used.
Data set [6] has as its target T1, Horse spleen ferritin. Briefly: Mobilisation of iron from ferritin (dialysis against a pyridone solution). It counts as biochemical. Particulars: ferritin 10^-6 M, pH 7.4, 3 x 10^-3 M pyridone. On the procedure: Horse spleen ferritin (Sigma) was used without further purification and its iron content was estimated spectrophotometrically at 420 nm. The ferritin solution in phosphate buffered saline (Dulbecco-OXOID, 10^-6 M, pH 7.4) was enclosed in a Visking dialysis tube and dialysed against a 3 x 10^-3 M buffered solution of one of various pyridones as indicated in Table 2. The absorption spectrum of the resulting iron (III) complex in the dialysis solution was recorded after 6 and 24 hours. For comparative purposes, the procedure was repeated using a blank control.
The results are shown in Table 2 where the percentage of ferritin-bound iron removed by the compound under test is shown. For comparative purposes, results reported in the literature for similar tests with 1 x 10^-3 M desferrioxamine (Crichton et al., J. Inorganic Biochem., 1980, 13, 305) and with 6 x 10^-3 M LICAMS (Tufano et al., Biochem. Biophys. Acta, 1981, 668, 420) are also given in the Table. It will be seen that the pyridone compounds are able to remove iron effectively from ferritin in contrast with desferrioxamine and LICAMS (although the latter will remove iron in the presence of ascorbic acid such a mixture is very difficult to manage clinically). […]

T2 sequence (P02787 20-698): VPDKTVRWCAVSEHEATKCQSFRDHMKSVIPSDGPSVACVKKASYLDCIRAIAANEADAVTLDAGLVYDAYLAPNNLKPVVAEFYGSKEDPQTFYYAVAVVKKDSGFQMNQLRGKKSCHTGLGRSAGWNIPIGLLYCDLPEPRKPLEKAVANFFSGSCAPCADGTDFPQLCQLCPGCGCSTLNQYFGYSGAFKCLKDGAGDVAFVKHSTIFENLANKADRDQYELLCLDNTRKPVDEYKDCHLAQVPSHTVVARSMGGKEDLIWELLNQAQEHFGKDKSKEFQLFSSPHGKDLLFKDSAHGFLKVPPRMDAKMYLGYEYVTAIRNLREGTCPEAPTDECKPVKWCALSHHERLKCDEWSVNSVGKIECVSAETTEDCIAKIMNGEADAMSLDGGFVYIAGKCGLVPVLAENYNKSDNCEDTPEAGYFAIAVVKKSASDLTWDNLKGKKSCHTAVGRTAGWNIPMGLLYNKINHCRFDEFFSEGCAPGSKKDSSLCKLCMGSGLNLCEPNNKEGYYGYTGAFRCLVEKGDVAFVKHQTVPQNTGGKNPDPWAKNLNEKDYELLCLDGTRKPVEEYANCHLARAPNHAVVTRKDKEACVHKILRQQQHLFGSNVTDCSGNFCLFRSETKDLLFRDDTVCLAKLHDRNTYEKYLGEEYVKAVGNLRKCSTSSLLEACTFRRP
T1 sequence (P02791 2-175 limits assumed): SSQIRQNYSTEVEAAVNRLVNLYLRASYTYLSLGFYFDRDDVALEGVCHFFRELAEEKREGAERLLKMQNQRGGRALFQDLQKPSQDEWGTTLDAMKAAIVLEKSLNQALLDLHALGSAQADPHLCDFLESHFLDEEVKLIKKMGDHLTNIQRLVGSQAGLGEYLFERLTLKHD
T1 sequence (Q8MIP0 whole entry): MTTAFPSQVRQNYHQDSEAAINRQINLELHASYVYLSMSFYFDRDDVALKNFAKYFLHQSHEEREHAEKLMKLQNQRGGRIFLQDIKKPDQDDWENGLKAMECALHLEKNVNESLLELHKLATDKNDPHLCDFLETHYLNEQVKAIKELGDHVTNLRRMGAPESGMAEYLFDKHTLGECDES

Take `CC(=O)N(O)CCCCCNC(=O)CCC(=O)N(O)CCCCCNC(=O)CCC(=O)N(O)CCCCCN` [Desferrioxamine, reference compound]: the figures for the “Excretion of ^59Fe±SD percent” value in data set [1] (Intragastric Administration) and in data set [1] (Intraperitoneal Administration) were 88 ± 17% and 414 ± 100%, respectively. Also, the “Percentage of iron removed 6 hours” value in data set [2] (1 mM desferrioxamine, literature (Crichton et al.)) is listed as 1.5%. Besides, the “log Ksol” value in data set [3] is recorded as 6.0. Besides, the “Percentage of iron removed 4 hours” value in data set [4] amounted to 17%. Further, the “Percentage of iron removed 18 hours” value in data set [4] was 22%.
Take `O=C(NCCCCN(CCCNC(=O)c1cc(S(=O)(=O)O)cc(O)c1O)C(=O)c1cc(S(=O)(=O)O)cc(O)c1O)c1cc(S(=O)(=O)O)cc(O)c1O` [LICAMS]: the “Percentage of iron removed 6 hours” value in data set [2] (6 mM LICAMS + 12 mM ascorbic acid, literature (Tufano et al.)) is on record as 7%; in data set [2] (6 mM LICAMS, literature (Tufano et al.)) it was 0%.
As to `Cn1cc(O)c(=O)cc1CO` [3-hydroxy-6-hydroxymethyl-1-methylpyrid-4-one], in data set [5], the logD (commonly lipophilicity at a set pH, counting ionised and neutral species) is -1.52. Besides, in data set [6], the “Percentage of iron removed 6 hours” value stood at 25% and the “Percentage of iron removed 24 hours” value is 49%. In addition, in data set [4], the “Percentage of iron removed 4 hours” value was 93% and the “Percentage of iron removed 18 hours” value came to 97%.
`O=C(O)CN(CCN(CC(=O)O)CC(=O)O)CCN(CC(=O)O)CC(=O)O` [DTPA, diethylenetriamine penta-acetic acid]: the “log Ksol” value in data set [3] is 2.0.
As to `Cc1c(O)c(=O)ccn1CCO` [3-hydroxy-1-(2'-hydroxyethyl)-2-methylpyrid-4-one], the “Excretion of ^59Fe±SD percent” value in data set [1] (Intraperitoneal Administration) amounted to 170 ± 49%. In data set [6], the “Percentage of iron removed 6 hours” value was determined as 31% and the “Percentage of iron removed 24 hours” value came to 49%. Also, in data set [4], the “Percentage of iron removed 4 hours” value was 94% and the “Percentage of iron removed 18 hours” value came to 96%.
Turning to `Cc1c(O)c(=O)ccn1C` [1,2-dimethyl-3-hydroxypyrid-4-one], the “log Ksol” value in data set [3] is 9.5.
Regarding `COC(=O)CCn1ccc(=O)c(O)c1C` [3-hydroxy-1-(2'-methoxycarbonylethyl)-2-methylpyrid-4-one], in data set [6], the “Percentage of iron removed 6 hours” value stood at 22% and the “Percentage of iron removed 24 hours” value is 45%.
On to `Cc1c(O)c(=O)ccn1CCCCCO` [3-hydroxy-1-(5'-hydroxypentyl)-2-methylpyrid-4-one], for which the “Excretion of ^59Fe±SD percent” value in data set [1] (Intragastric Administration) was determined as 111 ± 22%; in data set [1] (Intraperitoneal Administration), 149 ± 59%.
In the case of `O=C(O)CN(CCN(CC(=O)O)CC(=O)O)CC(=O)O` [EDTA, ethylenediamine tetra-acetic acid, reference compound], in data set [4], the “Percentage of iron removed 4 hours” value was 27% and the “Percentage of iron removed 18 hours” value is listed as 67%.
